Values after ≈ are worked out from the molar mass of the structure shown.
Experiments:
Streptococcus pneumoniae [1] = assay: Antibacterial activity against multidrug resistant Streptococcus pneumoniae […] by CLSI microdilution susceptibility testing method; assay type: functional
Streptococcus pneumoniae [2] = assay: Antibacterial activity against multidrug resistant Streptococcus pneumoniae […] assessed as resistant strains by CLSI microdilution susceptibility testing method; assay type: functional

`COc1cc(Cc2cnc(N)nc2N)c2cc(Cc3c(C(=O)N(C)C)[nH]c4ccc(Cl)cc34)oc2c1OC` was tested, and the MIC50 (Streptococcus pneumoniae [1]) was 0.25 µg/mL (≈ 0.467 µM) and the MIC90 (Streptococcus pneumoniae [1]) was 0.5 µg/mL (≈ 0.935 µM).
`CC1(C)S[C@@H]2[C@H](NC(=O)[C@H](N)c3ccc(O)cc3)C(=O)N2[C@H]1C(=O)O` [AMOXICILLIN] was tested, and the Activity (Streptococcus pneumoniae [2]) was 48.2%, the MIC50 (Streptococcus pneumoniae [1]) was 2 µg/mL (≈ 5.47 µM) and the MIC90 (Streptococcus pneumoniae [1]) was 8 µg/mL (≈ 21.9 µM).
For `CO/N=C(\C(=O)N[C@@H]1C(=O)N2C(C(=O)O)=C(COC(C)=O)CS[C@H]12)c1csc(N)n1` [CEFOTAXIME], the Activity (Streptococcus pneumoniae [2]) was 41.1%, the MIC50 (Streptococcus pneumoniae [1]) was 1 µg/mL (≈ 2.2 µM) and the MIC90 (Streptococcus pneumoniae [1]) was 2 µg/mL (≈ 4.39 µM).
Molecule `CCC[C@@H]1C[C@@H](C(=O)N[C@@H]([C@H]2O[C@H](SC)[C@H](O)[C@@H](O)[C@H]2O)[C@H](C)Cl)N(C)C1` [CLINDAMYCIN] has an Activity (Streptococcus pneumoniae [2]) of 34.8%, an MIC50 (Streptococcus pneumoniae [1]) of 0.06 µg/mL (≈ 0.141 µM) and an MIC90 (Streptococcus pneumoniae [1]) of over 8 µg/mL.
`C[C@H]1c2cccc(O)c2C(=O)C2=C(O)[C@]3(O)C(=O)C(C(N)=O)=C(O)[C@@H](N(C)C)[C@@H]3[C@@H](O)[C@@H]21.O` [DOXYCYCLINE] was tested, and the Activity (Streptococcus pneumoniae [2]) was 40.6%, the MIC50 (Streptococcus pneumoniae [1]) was 0.12 µg/mL and the MIC90 (Streptococcus pneumoniae [1]) was 8 µg/mL.
Molecule `CC[C@H]1OC(=O)[C@H](C)[C@@H](O[C@H]2C[C@@](C)(OC)[C@@H](O)[C@H](C)O2)[C@H](C)[C@@H](O[C@@H]2O[C@H](C)C[C@H](N(C)C)[C@H]2O)[C@](C)(O)C[C@@H](C)C(=O)[C@H](C)[C@@H](O)[C@]1(C)O` [ERYTHROMYCIN] has an Activity (Streptococcus pneumoniae [2]) of 83.5%, an MIC50 (Streptococcus pneumoniae [1]) of 8 µg/mL (≈ 10.9 µM) and an MIC90 (Streptococcus pneumoniae [1]) of over 32 µg/mL.
In the case of `C[C@H]1COc2c(N3CCN(C)CC3)c(F)cc3c(=O)c(C(=O)O)cn1c23.C[C@H]1COc2c(N3CCN(C)CC3)c(F)cc3c(=O)c(C(=O)O)cn1c23.O` [LEVOFLOXACIN], the Activity (Streptococcus pneumoniae [2]) is reported as 21%, the MIC50 (Streptococcus pneumoniae [1]) is reported as 1 µg/mL and the MIC90 (Streptococcus pneumoniae [1]) is reported as over 8 µg/mL.
Molecule `C[C@@H](O)[C@H]1C(=O)N2C(C(=O)O)=C(S[C@@H]3CN[C@H](C(=O)N(C)C)C3)[C@H](C)[C@H]12` [MEROPENEM] has an Activity (Streptococcus pneumoniae [2]) of 75.9%, an MIC50 (Streptococcus pneumoniae [1]) of 0.5 µg/mL (≈ 1.3 µM) and an MIC90 (Streptococcus pneumoniae [1]) of 1 µg/mL (≈ 2.61 µM).
Work on `CC1(C)S[C@@H]2[C@H](NC(=O)Cc3ccccc3)C(=O)N2[C@H]1C(=O)O` [PENICILLIN G] yielded an Activity (Streptococcus pneumoniae [2]) of 85.7%, an MIC50 (Streptococcus pneumoniae [1]) of 4 µg/mL (≈ 12 µM) and an MIC90 (Streptococcus pneumoniae [1]) of 4 µg/mL (≈ 12 µM).
